# PubChem BioAssay (NCI)
#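 Dose response: 5 concentrations. Exposure: 48 h. Format: 96-well plates. Endpoint: linear interpolation; highest concentration if not reached. Definition used: TGI = concentration required for complete inhibition of growth.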
# Tests used:
# Experiment in all cases: DTP human tumour cell line panel, 48 h
# 786-0 renal = test system: 786-0 renal
# A549 NSCLC = test system: A549 NSCLC
# ACHN renal = test system: ACHN renal
# BT-549 breast = test system: BT-549 breast
# CAKI-1 renal = test system: CAKI-1 renal
# CCRF-CEM leukemia = test system: CCRF-CEM leukemia
# COLO 205 colon = test system: COLO 205 colon
# DU-145 prostate = test system: DU-145 prostate
# HCC-2998 colon = test system: HCC-2998 colon
# HCT-116 colon = test system: HCT-116 colon
# HCT-15 colon = test system: HCT-15 colon
# HL-60(TB) leukemia = test system: HL-60(TB) leukemia
# HOP-62 NSCLC = test system: HOP-62 NSCLC
# HOP-92 NSCLC = test system: HOP-92 NSCLC
# HT29 colon = test system: HT29 colon
# IGROV1 ovarian = test system: IGROV1 ovarian
# K-562 leukemia = test system: K-562 leukemia
# KM12 colon = test system: KM12 colon
# LOX IMVI melanoma = test system: LOX IMVI melanoma
# M14 melanoma = test system: M14 melanoma
# MALME-3M melanoma = test system: MALME-3M melanoma
# MCF7 breast = test system: MCF7 breast
# MDA-MB-231 breast = test system: MDA-MB-231 breast
# MDA-MB-435 = test system: MDA-MB-435
# MDA-N = test system: MDA-N
# MOLT-4 leukemia = test system: MOLT-4 leukemia
# NCI-H226 lung = test system: NCI-H226 lung
# NCI-H23 lung = test system: NCI-H23 lung
# NCI-H460 lung = test system: NCI-H460 lung
# NCI-H522 lung = test system: NCI-H522 lung
# NCI/ADR-RES ovarian = test system: NCI/ADR-RES ovarian
# OVCAR-3 ovarian = test system: OVCAR-3 ovarian
# OVCAR-4 ovarian = test system: OVCAR-4 ovarian
# OVCAR-5 ovarian = test system: OVCAR-5 ovarian
# OVCAR-8 ovarian = test system: OVCAR-8 ovarian
# PC-3 prostate = test system: PC-3 prostate
# RPMI-8226 leukemia = test system: RPMI-8226 leukemia
# RXF 393 renal = test system: RXF 393 renal
# SF-268 CNS = test system: SF-268 CNS
# SF-295 CNS = test system: SF-295 CNS
# SF-539 CNS = test system: SF-539 CNS
# SK-MEL-2 melanoma = test system: SK-MEL-2 melanoma
# SK-MEL-28 melanoma = test system: SK-MEL-28 melanoma
# SK-MEL-5 melanoma = test system: SK-MEL-5 melanoma
# SK-OV-3 ovarian = test system: SK-OV-3 ovarian
# SN12C renal = test system: SN12C renal
# SNB-19 CNS = test system: SNB-19 CNS
# SNB-75 CNS = test system: SNB-75 CNS
# SR leukemia = test system: SR leukemia
# SW-620 colon = test system: SW-620 colon
# T-47D breast = test system: T-47D breast
# TK-10 renal = test system: TK-10 renal
# U251 CNS = test system: U251 CNS
# UACC-257 melanoma = test system: UACC-257 melanoma
# A498 renal = test system: A498 renal
# EKVX NSCLC = test system: EKVX NSCLC
# UACC-62 melanoma = test system: UACC-62 melanoma
# UO-31 renal = test system: UO-31 renal
smiles,measurement,setting,value
COc1c(O)cc2c(c1O)C1O[C@H](CO)C(O)[C@H](O)[C@H]1OC2=O (stereo partly specified),TGI,786-0 renal,> 100 µM
same,TGI,A549 NSCLC,> 100 µM
same,TGI,ACHN renal,> 100 µM
same,TGI,BT-549 breast,> 100 µM
same,TGI,CAKI-1 renal,> 100 µM
same,TGI,CCRF-CEM leukemia,> 100 µM
same,TGI,COLO 205 colon,> 100 µM
same,TGI,DU-145 prostate,> 100 µM
same,TGI,HCC-2998 colon,> 100 µM
same,TGI,HCT-116 colon,> 100 µM
same,TGI,HCT-15 colon,> 100 µM
same,TGI,HL-60(TB) leukemia,> 100 µM
same,TGI,HOP-62 NSCLC,> 100 µM
same,TGI,HOP-92 NSCLC,> 100 µM
same,TGI,HT29 colon,> 100 µM
same,TGI,IGROV1 ovarian,> 100 µM
same,TGI,K-562 leukemia,> 100 µM
same,TGI,KM12 colon,> 100 µM
same,TGI,LOX IMVI melanoma,> 100 µM
same,TGI,M14 melanoma,> 100 µM
same,TGI,MALME-3M melanoma,> 100 µM
same,TGI,MCF7 breast,> 100 µM
same,TGI,MDA-MB-231 breast,> 100 µM
same,TGI,MDA-MB-435,> 100 µM
same,TGI,MDA-N,> 100 µM
same,TGI,MOLT-4 leukemia,> 100 µM
same,TGI,NCI-H226 lung,> 100 µM
same,TGI,NCI-H23 lung,> 100 µM
same,TGI,NCI-H460 lung,> 100 µM
same,TGI,NCI-H522 lung,> 100 µM
same,TGI,NCI/ADR-RES ovarian,> 100 µM
same,TGI,OVCAR-3 ovarian,> 100 µM
same,TGI,OVCAR-4 ovarian,> 100 µM
same,TGI,OVCAR-5 ovarian,> 100 µM
same,TGI,OVCAR-8 ovarian,> 100 µM
same,TGI,PC-3 prostate,> 100 µM
same,TGI,RPMI-8226 leukemia,> 100 µM
same,TGI,RXF 393 renal,> 100 µM
same,TGI,SF-268 CNS,> 100 µM
same,TGI,SF-295 CNS,> 100 µM
same,TGI,SF-539 CNS,> 100 µM
same,TGI,SK-MEL-2 melanoma,> 100 µM
same,TGI,SK-MEL-28 melanoma,> 100 µM
same,TGI,SK-MEL-5 melanoma,> 100 µM
same,TGI,SK-OV-3 ovarian,> 100 µM
same,TGI,SN12C renal,> 100 µM
same,TGI,SNB-19 CNS,> 100 µM
same,TGI,SNB-75 CNS,> 100 µM
same,TGI,SR leukemia,> 100 µM
same,TGI,SW-620 colon,> 100 µM
same,TGI,T-47D breast,> 100 µM
same,TGI,TK-10 renal,> 100 µM
same,TGI,U251 CNS,> 100 µM
same,TGI,UACC-257 melanoma,> 100 µM
COc1ccc(NC(C)=O)cc1N1C(=O)/C(=C\c2cc(OC)c(OC)c(OC)c2)S(=O)(=O)C1c1ccccc1 (stereo unspecified),TGI,786-0 renal,> 100 µM
same,TGI,A498 renal,> 100 µM
same,TGI,A549 NSCLC,> 100 µM
same,TGI,ACHN renal,> 100 µM
same,TGI,BT-549 breast,> 100 µM
same,TGI,CAKI-1 renal,> 100 µM
same,TGI,CCRF-CEM leukemia,> 100 µM
same,TGI,COLO 205 colon,> 100 µM
same,TGI,DU-145 prostate,> 100 µM
same,TGI,EKVX NSCLC,> 100 µM
same,TGI,HCC-2998 colon,> 100 µM
same,TGI,HCT-116 colon,> 100 µM
same,TGI,HCT-15 colon,> 100 µM
same,TGI,HL-60(TB) leukemia,43 µM
same,TGI,HOP-62 NSCLC,> 100 µM
same,TGI,HOP-92 NSCLC,> 100 µM
same,TGI,HT29 colon,> 100 µM
same,TGI,IGROV1 ovarian,> 100 µM
same,TGI,K-562 leukemia,> 100 µM
same,TGI,KM12 colon,> 100 µM
same,TGI,LOX IMVI melanoma,> 100 µM
same,TGI,M14 melanoma,> 100 µM
same,TGI,MALME-3M melanoma,> 100 µM
same,TGI,MCF7 breast,> 100 µM
same,TGI,MDA-MB-231 breast,> 100 µM
same,TGI,MDA-MB-435,> 100 µM
same,TGI,MDA-N,> 100 µM
same,TGI,MOLT-4 leukemia,> 100 µM
same,TGI,NCI-H226 lung,> 100 µM
same,TGI,NCI-H23 lung,> 100 µM
same,TGI,NCI-H460 lung,> 100 µM
same,TGI,NCI-H522 lung,> 100 µM
same,TGI,NCI/ADR-RES ovarian,> 100 µM
same,TGI,OVCAR-3 ovarian,> 100 µM
same,TGI,OVCAR-4 ovarian,> 100 µM
same,TGI,OVCAR-5 ovarian,> 100 µM
same,TGI,OVCAR-8 ovarian,> 100 µM
same,TGI,PC-3 prostate,> 100 µM
same,TGI,RPMI-8226 leukemia,> 100 µM
same,TGI,RXF 393 renal,> 100 µM
same,TGI,SF-295 CNS,> 100 µM
same,TGI,SF-539 CNS,> 100 µM
same,TGI,SK-MEL-2 melanoma,> 100 µM
same,TGI,SK-MEL-28 melanoma,> 100 µM
same,TGI,SK-MEL-5 melanoma,> 100 µM
same,TGI,SK-OV-3 ovarian,> 100 µM
same,TGI,SN12C renal,> 100 µM
same,TGI,SNB-19 CNS,> 100 µM
same,TGI,SNB-75 CNS,> 100 µM
same,TGI,SR leukemia,> 100 µM
same,TGI,SW-620 colon,> 100 µM
same,TGI,T-47D breast,> 100 µM
same,TGI,TK-10 renal,> 100 µM
same,TGI,U251 CNS,> 100 µM
same,TGI,UACC-257 melanoma,> 100 µM
same,TGI,UACC-62 melanoma,> 100 µM
same,TGI,UO-31 renal,> 100 µM
